From patent publication US6727254B2 (Schering Corporation, priority 2001, dated 2004)

target: T1, ORL-1 receptor (Homo sapiens, UniProt P41146); assay: Nociceptin binding assay; conditions: CHO cell membrane preparation expressing the ORL-1 receptor; [125I][Tyr14]nociceptin
T1 construct: expressed in transfected cells; host or cells: CHO cells (membrane preparation)
Protocol: CHO cell membrane preparation expressing the ORL-1 receptor (2 mg) was incubated with varying concentrations of [^125I][Tyr ^14]nociceptin (3-500 pM) in a buffer containing 50 mM HEPES (pH7.4), 10 mM NaCl, 1 mM MgCl2, 2.5 mM CaCl2, 1 mg/ml bovine serum albumin and 0.025% bacitracin. In a number of studies, assays were carried out in buffer 50 mM tris-HCl (pH 7.4), 1 mg/ml bovine serum albumin and 0.025% bacitracin. Samples were incubated for 1 h at room temperature (22° C.). Radiolabelled ligand bound to the membrane was harvested over GF/B filters presoaked in 0.1% polyethyleneimine using a Brandell cell harvester and washed five times with 5 ml cold distilled water. Nonspecific binding was determined in parallel by similar assays performed in the presence of 1 μM nociceptin. All assay points were performed in duplicates of total and non-specific binding.
Calculations of Ki were made using methods well known in the art.

T1 sequence (P41146 whole entry): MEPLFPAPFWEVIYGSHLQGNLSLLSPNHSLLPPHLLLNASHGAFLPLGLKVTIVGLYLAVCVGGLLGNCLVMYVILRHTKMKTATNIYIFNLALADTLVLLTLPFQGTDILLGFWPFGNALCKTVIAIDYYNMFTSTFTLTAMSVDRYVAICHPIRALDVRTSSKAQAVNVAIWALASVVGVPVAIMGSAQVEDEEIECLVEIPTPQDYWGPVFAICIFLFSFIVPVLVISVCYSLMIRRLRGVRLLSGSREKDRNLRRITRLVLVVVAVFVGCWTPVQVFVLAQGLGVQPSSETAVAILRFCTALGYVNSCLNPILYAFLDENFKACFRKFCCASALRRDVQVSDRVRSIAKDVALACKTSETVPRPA

SMILES	Ki [nM]
OC1(c2cnccn2)CC2CCC(C1)N2C(c1ccccc1Cl)c1ccccc1Cl (centres unmarked) [Example 12, 8-[Bis(2-chlorophenyl)methyl]-3-(2-pyrazinyl)-8-azabicyclo[3.2.1]octan-3-ol]	2
OC1(c2nccc(N3CCNCC3)n2)CC2CCC(C1)N2C(c1ccccc1Cl)c1ccccc1Cl (centres unmarked) [Example 3, 8-[Bis(2-chlorophenyl)methyl]-3-[4-(1-piperazinyl)-2-pyrimidinyl]-8-azabicyclo[3.2.1]octan-3-ol]	4
OC1(c2cccnn2)CC2CCC(C1)N2C(c1ccccc1Cl)c1ccccc1Cl (centres unmarked) [Example 11, 8-[Bis(2-chlorophenyl)methyl]-3-(3-pyridazinyl)-8-azabicyclo[3.2.1]octan-3-ol]	7
COC1(c2ncccn2)CC2CCC(C1)N2C(c1ccccc1Cl)c1ccccc1Cl (centres unmarked) [Example 6, 8-[Bis(2-chlorophenyl)methyl]-3-methoxy-3-(2-pyrimidinyl)-8-azabcyclo[3.2.1]octane]	5.4
Cn1nccc1C1(O)CC2CCC(C1)N2C(c1ccccc1Cl)c1ccccc1Cl (centres unmarked) [Example 8, 8-[Bis(2-chlorophenyl)methyl]-3-(1-methyl-pyrazol-5-yl)-8-azabicyclo[3.2.1]octan-3-ol]	6
OC1(c2ccc(Br)cn2)CC2CCC(C1)N2C(c1ccccc1Cl)c1ccccc1Cl (centres unmarked) [Example 14, 8-[Bis(2-chlorophenyl)methyl]-3-(5-bromo-2-pyridinyl)-8-azabicyclo[3.2.1]octan-3-ol]	1.3
CCc1cnc(C2(O)CC3CCC(C2)N3C(c2ccccc2Cl)c2ccccc2Cl)nc1 (centres unmarked) [Example 2, 8-[Bis(2-chlorophenyl)methyl]-3-(5-ethyl-2-pyrimidinyl)-8-azabicyclo[3.2.1]octan-3-ol]	7.6
OC1(c2ccccn2)CC2CCC(C1)N2C(c1ccccc1Cl)c1ccccc1Cl (centres unmarked) [Example 4, 8-[Bis(2-Chlorophenyl)methyl]-3-(2-pyridinyl)-8-azabicyclo[3.2.1]octan-3-ol]	4
